These compounds were tested against human recombinant LRRK2 protein (Homo sapiens, UniProt Q5S007) (assay: LRRK2 kinase activity assay (ADP-Glo, LRRKtide peptide)). Details: human recombinant LRRK2 wt, LRRKtide peptide and ATP, 1 h at 37° C.
Type: biochemical
In short: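 ADP-Glo luminescence read-out of a peptide assay: compound, ATP and LRRKtide substrate combined with recombinant human LRRK2 and incubated at 37 °C for 1 h. Ten-point data, N=2, curve-fitted to IC50.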

Sequence of human recombinant LRRK2 protein (Q5S007 whole entry): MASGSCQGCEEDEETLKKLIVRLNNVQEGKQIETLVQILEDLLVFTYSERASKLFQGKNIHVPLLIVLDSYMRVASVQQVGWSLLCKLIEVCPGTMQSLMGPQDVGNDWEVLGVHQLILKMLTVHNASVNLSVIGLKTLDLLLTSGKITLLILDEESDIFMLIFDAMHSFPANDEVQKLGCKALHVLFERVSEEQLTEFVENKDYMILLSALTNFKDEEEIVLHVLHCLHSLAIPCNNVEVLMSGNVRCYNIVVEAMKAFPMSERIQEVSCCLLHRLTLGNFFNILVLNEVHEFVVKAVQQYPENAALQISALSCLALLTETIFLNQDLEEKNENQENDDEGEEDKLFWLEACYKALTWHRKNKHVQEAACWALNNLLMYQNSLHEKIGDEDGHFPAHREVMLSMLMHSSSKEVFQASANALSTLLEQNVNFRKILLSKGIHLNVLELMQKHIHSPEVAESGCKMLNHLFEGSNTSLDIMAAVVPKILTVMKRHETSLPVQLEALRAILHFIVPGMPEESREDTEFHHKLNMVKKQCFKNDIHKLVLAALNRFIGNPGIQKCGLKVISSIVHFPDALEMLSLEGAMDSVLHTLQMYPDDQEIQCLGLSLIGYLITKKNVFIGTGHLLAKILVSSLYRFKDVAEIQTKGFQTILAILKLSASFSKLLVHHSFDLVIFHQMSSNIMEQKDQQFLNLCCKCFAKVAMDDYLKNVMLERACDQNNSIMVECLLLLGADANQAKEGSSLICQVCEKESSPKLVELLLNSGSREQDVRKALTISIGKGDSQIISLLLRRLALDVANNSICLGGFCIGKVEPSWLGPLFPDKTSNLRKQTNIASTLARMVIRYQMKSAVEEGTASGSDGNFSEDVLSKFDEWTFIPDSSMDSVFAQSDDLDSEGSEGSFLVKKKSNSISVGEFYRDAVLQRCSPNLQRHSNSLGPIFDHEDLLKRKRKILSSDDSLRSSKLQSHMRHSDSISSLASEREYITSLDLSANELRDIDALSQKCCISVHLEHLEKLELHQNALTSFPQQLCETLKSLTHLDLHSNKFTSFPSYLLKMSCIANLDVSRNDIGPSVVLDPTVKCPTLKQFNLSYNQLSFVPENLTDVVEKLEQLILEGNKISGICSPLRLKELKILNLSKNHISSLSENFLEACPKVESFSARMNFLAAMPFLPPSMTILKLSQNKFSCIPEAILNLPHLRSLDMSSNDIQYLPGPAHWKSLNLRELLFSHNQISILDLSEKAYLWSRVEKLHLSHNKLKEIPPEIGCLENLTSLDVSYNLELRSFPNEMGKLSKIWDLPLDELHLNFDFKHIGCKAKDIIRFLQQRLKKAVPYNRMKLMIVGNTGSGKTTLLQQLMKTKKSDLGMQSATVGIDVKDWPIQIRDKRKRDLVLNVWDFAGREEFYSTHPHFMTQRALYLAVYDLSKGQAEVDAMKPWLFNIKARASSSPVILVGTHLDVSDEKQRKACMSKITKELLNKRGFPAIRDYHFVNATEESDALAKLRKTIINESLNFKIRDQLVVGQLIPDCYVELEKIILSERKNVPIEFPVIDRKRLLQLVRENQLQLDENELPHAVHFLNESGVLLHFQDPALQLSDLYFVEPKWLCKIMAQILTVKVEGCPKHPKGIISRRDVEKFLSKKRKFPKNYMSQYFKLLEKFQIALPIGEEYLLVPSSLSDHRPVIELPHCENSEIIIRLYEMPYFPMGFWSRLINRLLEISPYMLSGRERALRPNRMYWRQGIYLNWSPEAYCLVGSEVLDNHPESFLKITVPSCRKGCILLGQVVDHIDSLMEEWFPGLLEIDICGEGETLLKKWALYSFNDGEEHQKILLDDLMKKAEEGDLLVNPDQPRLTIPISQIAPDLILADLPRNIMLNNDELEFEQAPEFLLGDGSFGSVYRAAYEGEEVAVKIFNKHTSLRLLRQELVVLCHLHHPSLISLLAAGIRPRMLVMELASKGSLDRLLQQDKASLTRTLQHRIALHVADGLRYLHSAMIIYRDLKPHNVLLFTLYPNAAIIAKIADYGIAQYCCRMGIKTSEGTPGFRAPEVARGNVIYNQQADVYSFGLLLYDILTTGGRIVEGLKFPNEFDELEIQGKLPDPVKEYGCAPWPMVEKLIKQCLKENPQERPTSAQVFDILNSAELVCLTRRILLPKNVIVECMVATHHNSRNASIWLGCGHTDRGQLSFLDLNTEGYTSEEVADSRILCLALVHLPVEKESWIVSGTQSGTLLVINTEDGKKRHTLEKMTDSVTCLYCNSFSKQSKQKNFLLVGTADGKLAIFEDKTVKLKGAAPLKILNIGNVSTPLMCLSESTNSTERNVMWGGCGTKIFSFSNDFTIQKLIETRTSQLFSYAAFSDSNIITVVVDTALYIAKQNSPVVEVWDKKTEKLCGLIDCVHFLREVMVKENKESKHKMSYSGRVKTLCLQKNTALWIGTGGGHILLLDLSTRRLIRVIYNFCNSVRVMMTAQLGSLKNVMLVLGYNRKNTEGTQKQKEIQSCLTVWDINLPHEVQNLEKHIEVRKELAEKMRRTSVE

Row | Compound | IC50 [nM]
1 | C[C@@H]1CCOCCOc2cccc(n2)-c2n[nH]c3ccc(cc23)O1 [Example 56, (13R)-13-methyl-7,10,14-trioxa-19,20,23-triazatetracyclo[13.5.2.1^2,6.0^18,21] tricosa-1(20),2(23),3,5,15(22),16,18(21)-heptaene] | < 10
2 | C[C@H]1CCOCCCn2cnc(c2)-c2n[nH]c3ccc(cc23)O1 [Example 57, (12S)-12-methyl-9,13-dioxa-3,5,18,19-tetraazatetracyclo [12.5.2.1^2,5.0^17,20] docosa-1(19),2(22),3,14(21),15,17(20)-hexaene] | < 1000
3 | C[C@@H]1COc2cncc(n2)-c2n[nH]c3ccc(cc23)O[C@@H](C)CCO1 [Example 58, (9R,13S)-9,13-dimethyl-7,10,14-trioxa-4,19,20,23-tetraazatetracyclo[13.5.2.1^2,6.0^18,21]tricosa-1(20),2(23),3,5,15(22),16,18(21)-heptaene] | < 100
4 | C[C@H]1COc2nccc(n2)-c2n[nH]c3ccc(cc23)O[C@@H](C)CCO1 [Example 59, (9S,13S)-9,13-dimethyl-7,10,14-trioxa-5,19,20,23-tetraazatetracyclo [13.5.2.1^2,6.0^18,21]tricosa-1(20),2(23),3,5,15(22),16,18(21)-heptaene] | < 100
5 | C[C@@H]1COCCOc2ccc3[nH]nc(c3c2)-c2cnn(c2)CCO1 [Example 60, (9R)-9-methyl-8,11,14-trioxa-4,5,19,20-tetraazatetracyclo[13.5.2.1^2,5.0^18,21] tricosa-1(20),2(23),3,15(22),16,18(21)-hexaene] | < 100
6 | C[C@H]1COCCOc2ccc3[nH]nc(c3c2)-c2cnn(c2)CCO1 [Example 61, (9S)-9-methyl-8,11,14-trioxa-4,5,19,20-tetraazatetracyclo[13.5.2.1^2,5.0^18,21] tricosa-1(20),2(23),3,15(22),16,18(21)-hexaene] | < 100
7 | C[C@H]1CCOCCOCc2nc(cs2)-c2n[nH]c3ccc(cc23)O1 [Example 62, (13S)-13-methyl-7,10,14-trioxa-4-thia-19,20,23-triazatetracyclo[13.5.2.1^2,5.0^18,21]tricosa-1(20),2,5(23),15(22),16,18(21)-hexaene] | < 100
8 | c1cc2[nH]nc3c2cc1OCCOCCOCCn1cc-3cn1 [Example 63, 8,11,14-trioxa-4,5,19,20-tetraazatetracyclo[13.5.2.1^2,5.0^18,21]tricosa-1(20), 2(23),3,15(22),16,18(21)-hexaene] | < 10
9 | C[C@H]1COCCOCCOc2ccc3[nH]nc(c3c2)-c2cnn1c2 [Example 64, (6S)-6-methyl-8,11,14-trioxa-4,5,19,20-tetraazatetra cyclo[13.5.2.1^2,5.0^18,21]tricosa-1(20),2(23),3,15(22),16,18(21)-hexaene] | < 10
10 | C[C@@H]1COCCOCCOc2ccc3[nH]nc(c3c2)-c2cnn1c2 [Example 65, (6R)-6-methyl-8,11,14-trioxa-4,5,19,20-tetraazatetracyclo[13.5.2.1^2,5.0^18,21] tricosa-1(20),2(23),3,15(22),16,18(21)-hexaene] | < 10
11 | C[C@H]1CCOCCOCC2=NC=C(S2)c2n[nH]c3ccc(cc23)O1 [Example 66, (13S)-13-methyl-7,10,14-trioxa-23-thia-4,19,20-triazatetracyclo[13.5.2.1^2,5.0^18,21]tricosa-1(20),2,4,15(22),16,18(21)-hexaene] | < 10
12 | C[C@@H]1COc2ccc3[nH]nc(c3c2)-c2cnn(c2)CCOCCO1 [Example 67, (12R)-12-methyl-8,11,14-trioxa-4,5,19,20-tetraazatetracyclo[13.5.2.1^2,5.0^18,21]tricosa-1(20),2(23),3,15(22),16,18(21)-hexaene] | < 10
13 | c1ncc2cc1CCOCCOCCOc1ccc3[nH]nc-2c3c1 [Example 68, 9,12,15-trioxa-4,20,21-triazatetracyclo[14.5.2.1^2,6.0^19,22]tetracosa-1(21), 2(24),3,5,16(23),17,19(22)-heptaene] | < 100
14 | C[C@H]1COCCOCCc2cncc(c2)-c2n[nH]c3ccc(cc23)O1 [Example 69, (14S)-14-methyl-9,12,15-trioxa-4,20,21-triazatetracyclo[14.5.2.1^2,6.0^19,22] tetracosa-1(21),2(24),3,5,16(23),17,19(22)-heptaene] | < 100
15 | C[C@@H]1COCCn2cc(cn2)-c2n[nH]c3ccc(cc23)OCCO1 [Example 70, (10R)-10-methyl-8,11,14-trioxa-4,5,19,20-tetraazatetracyclo[13.5.2.1^2,5.0^18,21]tricosa-1(20),2(23),3,15(22),16,18(21)-hexaene] | < 100
16 | C[C@@H]1COCCOCCn2ncc(n2)-c2n[nH]c3ccc(cc23)O1 [Example 71, (13R)-13-methyl-8,11,14-trioxa-4,5,19,20,23-pentaazatetracyclo[13.5.2.1^2,5.0^18,21]tricosa-1(20),2(23),3,15(22),16,18(21)-hexaene] | < 100

Row | Compound | IC50 [nM]
17 | C[C@H]1COCCOCCn2cc(cc2C#N)-c2n[nH]c3ccc(cc23)O1 [Example 72, (13S)-13-methyl-8,11,14-trioxa-5,19,20-triazatetracyclo[13.5.2.1^2,5.0^18,21] tricosa-1(20),2(23),3,15(22),16,18(21)-hexaene-4-carbonitrile] | < 10
18 | c1nn2cc1-c1n[nH]c3ccc(nc13)OCCOCCOCC2 [Example 73, 8,11,14-trioxa-4,5,19,20,22-pentaazatetracyclo[13.5.2.1^2,5.0^18,21]tricosa-1(20),2(23),3,15(22), 16,18(21)-hexaene] | < 100
19 | c1cc2[nH]nc3c2cc1OCCCOCCCn1ncc-3n1 [Example 74, 9,13-dioxa-4,5,18,19,22-pentaazatetracyclo[12.5.2.1^2,5.0^17,20]docosa-1(19), 2(22),3,14(21),15,17(20)-hexaene] | < 10
20 | C[C@@H]1CCOCCOCC2=NC=C(S2)c2n[nH]c3ccc(cc23)O1 [Example 75, (13R)-13-methyl-7,10,14-trioxa-23-thia-4,19,20-triazatetracyclo[13.5.2.1^2,5.0^18,21]tricosa-1(20),2,4,15(22),16,18(21)-hexaene] | < 10
21 | C[C@@H]1COCCOCCc2nc(cn2C)-c2n[nH]c3ccc(cc23)O1 [Example 76, (13R)-4,13-dimethyl-8,11,14-trioxa-4,19,20,23-tetraazatetracyclo[13.5.2.1^2,5.0^18,21]tricosa-1(20),2,5(23),15(22),16,18(21)-hexaene] | > 1000
22 | C[C@@H]1Cn2cc(cn2)-c2n[nH]c3ccc(cc23)OCCOCCO1 [Example 77, (7R)-7-methyl-8,11,14-trioxa-4,5,19,20-tetraazatetracyclo[13.5.2.1^2,5.0^18,21] tricosa-1(20),2(23),3,15(22),16,18(21)-hexaene] | < 100
23 | FC1(F)COCCOCCn2cc(cn2)-c2n[nH]c3ccc(cc23)O1 [Example 78, 13,13-difluoro-8,11,14-trioxa-4,5,19,20-tetraazatetra cyclo[13.5.2.1^2,5.0^18,21]tricosa-1(20),2(23),3, 15(22),16,18(21)-hexaene] | < 10
24 | C[C@H]1CCOCCOCc2nc(cn2C)-c2n[nH]c3ccc(cc23)O1 [Example 79, (13S)-4,13-dimethyl-7,10,14-trioxa-4,19,20,23-tetraazatetracyclo[13.5.2.1^2,5.0^18,21]tricosa-1(20),2,5(23),15(22),16,18(21)-hexaene] | < 100
25 | C[C@H]1COCCOCCn2ccc(n2)-c2n[nH]c3ccc(cc23)O1 [Example 80, (13S)-13-methyl-8,11,14-trioxa-5,19,20,23-tetraazatetracyclo [13.5.2.1^2,5.0^18,21]tricosa-1(20),2(23),3,15(22),16,18(21)-hexaene] | < 1000
26 | C[C@H]1COCCOCCn2ncc(n2)-c2n[nH]c3ccc(cc23)O1 [Example 81, (13S)-13-methyl-8,11,14-trioxa-4,5,19,20,23-pentaazatetracyclo[13.5.2.1^2,5.0^18,21]tricosa-1(20),2(23),3,15(22),16,18(21)-hexaene] | < 100
27 | C[C@@H]1COCCOCCn2cc(cc2C#N)-c2n[nH]c3ccc(cc23)O1 [Example 82, (13R)-13-methyl-8,11,14-trioxa-5,19,20-triazatetracyclo[13.5.2.1^2,5.0^18,21] tricosa-1(20),2(23),3,15(22),16,18(21)-hexaene-4-carbonitrile] | < 100
28 | C[C@@H]1COCCOCCn2ccc(n2)-c2n[nH]c3ccc(cc23)O1 [Example 83, (13R)-13-methyl-8,11,14-trioxa-5,19,20,23-tetraazatetracyclo[13.5.2.1^2,5.0^18,21]tricosa-1(20),2(23),3,15(22),16,18(21)-hexaene] | < 1000
29 | c1cc2[nH]nc3c2cc1OCCOCCCOCc1ncc-3s1 [Example 84, 7,11,14-trioxa-23-thia-4,19,20-triazatetracyclo[13.5.2.1^2,5.0^18,21]tricosa-1(20),2,4,15(22), 16,18(21)-hexaene] | < 10
30 | C[C@H]1COc2ccc3[nH]nc(c3c2)-c2cc(C#N)n(c2)CCOCCO1 [Example 85, (12S)-12-methyl-8,11,14-trioxa-5,19,20-triazatetracyclo[13.5.2.1^2,5.0^18,21] tricosa-1(20),2(23),3,15(22),16,18(21)-hexaene-4-carbonitrile] | < 10
31 | C[C@@H]1COc2ccc3[nH]nc(c3c2)-c2cc(C#N)n(c2)CCOCCO1 [Example 86, (12R)-12-methyl-8,11,14-trioxa-5,19,20-triazatetracyclo [13.5.2.1^2,5.0^18,21]tricosa-1(20),2(23),3,15(22),16,18(21)-hexaene-4-carbonitrile] | < 10
32 | C[C@@H]1COCCO[C@@H](C)COc2ccc3[nH]nc(c3c2)-c2cnn1c2 [Example 87, (6R,12S)-6,12-dimethyl-8,11,14-trioxa-4,5,19,20-tetraazatetracyclo[13.5.2.1^2,5.0^18,21]tricosa-1(20),2(23),3,15(22),16,18(21)-hexaene] | < 10
